# Laboratory results as given in PubChem BioAssay AID488889 (Sanford-Burnham Center for Chemical Genomics, 2010).
# Target: Tyrosine-protein phosphatase non-receptor type 7 (Homo sapiens) (UniProt P35236)
# Test: inhibition of hematopoietic tyrosine phosphatase HePTP – biochemical, set 3, SAR follow-up (AID 488889)
# Conditions: recombinant HePTP phosphatase activity assay
# Tyrosine-protein phosphatase non-receptor type 7 (Homo sapiens), sequence (P35236 whole entry, looked up): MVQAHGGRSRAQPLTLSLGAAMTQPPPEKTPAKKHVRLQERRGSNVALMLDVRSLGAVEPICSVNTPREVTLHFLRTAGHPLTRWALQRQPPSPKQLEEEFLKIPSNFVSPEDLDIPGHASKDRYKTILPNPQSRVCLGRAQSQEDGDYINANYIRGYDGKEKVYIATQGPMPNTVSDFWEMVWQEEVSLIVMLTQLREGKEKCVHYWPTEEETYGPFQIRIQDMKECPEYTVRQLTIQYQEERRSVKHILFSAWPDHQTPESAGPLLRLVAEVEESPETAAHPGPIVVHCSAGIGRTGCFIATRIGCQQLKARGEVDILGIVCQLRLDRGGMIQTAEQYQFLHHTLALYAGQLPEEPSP
row,Structure (SMILES),IC50
1,CCOC(=O)COc1ccc(/C=N/NC(=O)c2ccc(-c3csc(Nc4ccc(Cl)cc4)n3)cc2)cc1,10.2 µM
2,O=C(O)COc1ccc(/C=N/NC(=O)c2ccc(-c3csc(Nc4ccc(Cl)cc4)n3)cc2)cc1,< 0.195 µM
